Experimental findings from patent publication US20160039880A1 (priority 2012, published 2016) are described below.

One may read the Ki as the dissociation constant of the complex between target and ligand, obtained from inhibition or displacement.

Each structure is given as a SMILES string. ≈ marks a conversion by molar mass, not a printed value. Like-named read-outs stand apart in the source and are kept apart here.

Series [1] deals with T1, Human recombinant cyclophilin A (Cyp A) (Homo sapiens, UniProt P62937).
Series [2] can be described thus: Water Solubility Assay (measured in pH 7.8 buffer).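 Also: precipitation onset detected as rise in absorbance at 650 nm across increasing concentrations, after shaking for 18 h, blank wells receiving DMSO only.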 Type of series: physicochemical.
The target of series [3] is T1, Human recombinant cyclophilin A (Cyp A). Nature of the series: Protease-free PPIase assay.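 Also: cis to trans isomerization of SUC-AAPF-pNA by 2 nM enzyme, read as absorbance at 330 nm over 300 s at 10 °C, catalytic rate corrected for uncatalyzed background.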
[4] abbreviates: 35 mM HEPES buffer pH 7.8, 25 °C, aqueous buffer, kinetic from dmso stock, pH 7.8 buffer, read-out: Water Solubility Assay.
The mark [5] stands for this setting: 25 °C, pH 7.8, aqueous buffer, kinetic from dmso stock.
[6] abbreviates: read-out: Protease-free PPIase Assay Ki, cyclophilin A, 10 °C.

T1 sequence (P62937 whole entry): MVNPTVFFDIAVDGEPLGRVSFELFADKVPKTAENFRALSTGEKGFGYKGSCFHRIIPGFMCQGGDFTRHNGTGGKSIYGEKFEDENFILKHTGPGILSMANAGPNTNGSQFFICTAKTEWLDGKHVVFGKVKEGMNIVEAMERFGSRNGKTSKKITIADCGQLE

With `CC[C@H]1NC(=O)[C@@H]([C@H](O)[C@H](C)CCN(C)CC2COCCO2)N(C)C(=O)[C@@H](C(C)C)N(C)C(=O)[C@@H](CC(C)C)N(C)C(=O)[C@@H](CC(C)C)N(C)C(=O)[C@H](C)NC(=O)[C@@H](C)NC(=O)[C@@H](CC(C)C)N(C)C(=O)[C@@H](C(C)C)NC(=O)[C@H](CC(C)C)N(C)C(=O)[C@@H](C)N(C)C1=O` (stereo partly drawn) [Compound AJ, [(3R,4R,5S)-4-Hydroxy-3-methyl-5-(methylamino)-1-(1,4-dioxan-2-ylmethyl)methylamino-hexanoic acid]^1[(R)-methyl-Sar]^3 cyclosporin A], in series [1], the Ki is 12 nM. Regarding `CC[C@H]1NC(=O)[C@@H]([C@H](O)[C@H](C)CCN(C)Cc2ccccn2)N(C)C(=O)[C@@H](C(C)C)N(C)C(=O)[C@@H](CC(C)C)N(C)C(=O)[C@@H](CC(C)C)N(C)C(=O)[C@H](C)NC(=O)[C@@H](C)NC(=O)[C@@H](CC(C)C)N(C)C(=O)[C@@H](C(C)C)NC(=O)[C@H](CC(C)C)N(C)C(=O)[C@@H](C)N(C)C1=O` [Compound DA, [(3R,4R,5S)-4-Hydroxy-3-methyl-5-(methylamino)-1-({pyridin-2-ylmethyl}-methylamino)-hexanoic acid]^1[(R)-methyl-Sar]^3 cyclosporin A], in series [2] (setting [4]), the solubility at 18 h was 75 to 100 µM (≈ 98.3 to 131 µg/mL). The Ki in series [3] worked out at 4.9 nM.

For the compound `CC[C@H]1NC(=O)[C@@H]([C@H](O)[C@H](C)CCCCCN(CC)CC)N(C)C(=O)[C@@H](C(C)C)N(C)C(=O)[C@@H](CC(C)C)N(C)C(=O)[C@@H](CC(C)C)N(C)C(=O)[C@H](C)NC(=O)[C@@H](C)NC(=O)[C@@H](CC(C)C)N(C)C(=O)[C@@H](C(C)C)NC(=O)[C@H](CC(C)C)N(C)C(=O)[C@@H](C)N(C)C1=O` [Compound AH, [(6R,7R,8S)-7-Hydroxy-6-methyl-8-(methylamino)-1-N-diethylamino-nonanoic acid]^1[(R)-methyl-Sar]^3 cyclosporin A], the solubility at 18 h in series [2] (setting [5]) was above 100 µM. The Ki in series [3] worked out at 4.7 nM. The like results for `CC[C@H]1NC(=O)[C@@H]([C@H](O)[C@H](C)CCN2CCOC[C@H]2C)N(C)C(=O)[C@@H](C(C)C)N(C)C(=O)[C@@H](CC(C)C)N(C)C(=O)[C@@H](CC(C)C)N(C)C(=O)[C@H](C)NC(=O)[C@@H](C)NC(=O)C(CC(C)C)N(C)C(=O)[C@@H](C(C)C)NC(=O)[C@H](CC(C)C)N(C)C(=O)[C@@H](C)N(C)C1=O` (stereo partly drawn) [Compound DT, [(3R,4R,5S)-4-Hydroxy-3-methyl-5-methylamino-((R)-3-methyl-morpholin-4-yl)-hexanoic acid]^1[(R)-methyl-Sar]^3 cyclosporin A] were, in that order, above 100 µM and 4.7 nM. As to `CC[C@H]1NC(=O)[C@@H]([C@H](O)[C@H](C)CCN2CCC3(CC2)OCCO3)N(C)C(=O)[C@@H](C(C)C)N(C)C(=O)[C@@H](CC(C)C)N(C)C(=O)[C@@H](CC(C)C)N(C)C(=O)[C@H](C)NC(=O)[C@@H](C)NC(=O)C(CC(C)C)N(C)C(=O)[C@@H](C(C)C)NC(=O)[C@H](CC(C)C)N(C)C(=O)[C@@H](C)N(C)C1=O` (stereo partly drawn) [Compound DY, [(3R,4R,5S)-1-(1,4-Dioxa-8-aza-spiro[4.5]dec-8-yl)-4-Hydroxy-3-methyl-5-(methylamino)-hexanoic acid]^1[(R)-methyl-Sar]^3 cyclosporin A], the solubility at 18 h in series [2] (setting [4]) was above 100 µM. Also, the inhibition constant (Ki) in series [3] stood at 13 nM. The like results for `CC[C@H]1NC(=O)[C@@H]([C@H](O)[C@H](C)CCN(C)Cc2ccncc2)N(C)C(=O)[C@@H](C(C)C)N(C)C(=O)[C@@H](CC(C)C)N(C)C(=O)[C@@H](CC(C)C)N(C)C(=O)[C@H](C)NC(=O)[C@@H](C)NC(=O)[C@@H](CC(C)C)N(C)C(=O)[C@@H](C(C)C)NC(=O)[C@H](CC(C)C)N(C)C(=O)[C@@H](C)N(C)C1=O` [Compound DL, [(3R,4R,5S)-4-Hydroxy-3-methyl-5-(methylamino)-1-({pyridin-4-ylmethyl}-methylamino)-hexanoic acid]^1[(R)-methyl-Sar]^3 cyclosporin A] were, in that order, above 100 µM and 5.7 nM. For the compound `CCC1NC(=O)C(C(O)C(C)CCN(CC)CC)N(C)C(=O)C(C(C)C)N(C)C(=O)C(CC(C)C)N(C)C(=O)C(CC(C)C)N(C)C(=O)C(C)NC(=O)C(C)NC(=O)C(CC(C)C)N(C)C(=O)C(C(C)C)NC(=O)C(CC(C)C)N(C)C(=O)C(C)N(C)C1=O` [Compound M, [(3R,4R,5S)-4-hydroxy-3-methyl-5-(methylamino)-1-N-diethylamino-hexanoic acid]^1[(R)-Me-Sar]^3 cyclosporin A], in series [2] (35 mM HEPES pH 7.8, 1% DMSO, 25 °C, 18 h), the “Water Solubility Assay, concentration at which the compound remains in solution” value was 75 to 100 µM. Further, in series [3] (setting [6]), the Ki amounted to 90 nM. As to `CC[C@H]1NC(=O)[C@@H]([C@H](O)[C@H](C)CCN2CCOCC2)N(C)C(=O)[C@@H](C(C)C)N(C)C(=O)[C@@H](CC(C)C)N(C)C(=O)[C@@H](CC(C)C)N(C)C(=O)[C@H](C)NC(=O)[C@@H](C)NC(=O)[C@@H](CC(C)C)N(C)C(=O)[C@@H](C(C)C)NC(=O)[C@H](CC(C)C)N(C)C(=O)[C@@H](OC)N(C)C1=O` [Compound B, [(3R,4R,5S)-4-Hydroxy-3-methyl-5-(methylamino)-1-N-morpholino-hexanoic acid]^1[(S)-methoxy-Sar]^3 cyclosporin A], the solubility at 18 h in series [2] (setting [5]) was above 100 µM. Also, in series [3], the inhibition constant Ki was found to be 8 nM. Turning to `CC[C@H]1NC(=O)[C@@H]([C@H](O)[C@H](C)CCN(C)CCOC)N(C)C(=O)[C@@H](C(C)C)N(C)C(=O)[C@@H](CC(C)C)N(C)C(=O)[C@@H](CC(C)C)N(C)C(=O)[C@H](C)NC(=O)[C@@H](C)NC(=O)[C@@H](CC(C)C)N(C)C(=O)[C@@H](C(C)C)NC(=O)[C@H](CC(C)C)N(C)C(=O)[C@@H](C)N(C)C1=O` [Compound AG], the solubility at 18 h in series [2] (35 mM HEPES pH 7.8, 1% DMSO, 25 °C, 18 h, read-out: Water Solubility Assay, concentration at which the compound remains in solution) was above 100 µM. For the same compound, in series [3] (setting [6]), the inhibitory constant (Ki) amounted to 18 nM. With `CC[C@H]1NC(=O)[C@@H]([C@H](O)[C@H](C)CCCCCN2CCOCC2)N(C)C(=O)[C@@H](C(C)C)N(C)C(=O)[C@@H](CC(C)C)N(C)C(=O)[C@@H](CC(C)C)N(C)C(=O)[C@H](C)NC(=O)[C@@H](C)NC(=O)[C@@H](CC(C)C)N(C)C(=O)[C@@H](C(C)C)NC(=O)[C@H](CC(C)C)N(C)C(=O)CN(C)C1=O` [Compound C, [(6R,7R,8S)-7-Hydroxy-6-methyl-8-(methylamino)-1-N-morpholinyl-nonanoic acid]^1 cyclosporin A], in series [2] (35 mM HEPES buffer pH 7.8, aqueous buffer, kinetic from dmso stock, 35 mM HEPES pH 7.8, 1% DMSO, 25 °C, 18 h, read-out: Water Solubility Assay, concentration at which the compound remains in solution), the solubility at 18 h was above 100 µM. Further, the inhibitory constant (Ki) in series [3] was determined as 14 nM. In turn, `CC[C@H]1NC(=O)[C@@H]([C@H](O)[C@H](C)CCN(C)CCC(F)(F)F)N(C)C(=O)[C@@H](C(C)C)N(C)C(=O)[C@@H](CC(C)C)N(C)C(=O)[C@@H](CC(C)C)N(C)C(=O)[C@H](C)NC(=O)[C@@H](C)NC(=O)[C@@H](CC(C)C)N(C)C(=O)[C@@H](C(C)C)NC(=O)[C@H](CC(C)C)N(C)C(=O)[C@@H](C)N(C)C1=O` [Compound DN, [(3R,4R,5S)-4-Hydroxy-3-methyl-5-(methylamino)-1-({3,3,3-trifluoropropyl}-methyl-amino)-hexanoic acid]^1[(R)-methyl-Sar]^3 cyclosporin A] had a solubility at 18 h in series [2] (setting [5]) of 25 to 50 µM (≈ 32.9 to 65.8 µg/mL). Moreover, in series [3], the inhibitory constant (Ki) came to 5.5 nM. The like results for `CC[C@H]1NC(=O)[C@@H]([C@H](O)[C@H](C)CCN2CCOCC2)N(C)C(=O)[C@@H](C(C)C)N(C)C(=O)[C@@H](CC(C)C)N(C)C(=O)[C@@H](CC(C)C)N(C)C(=O)[C@H](C)NC(=O)[C@@H](C)NC(=O)[C@@H](CC(C)C)N(C)C(=O)[C@@H](C(C)C)NC(=O)[C@H](CC(C)C)N(C)C(=O)[C@@H](SC(C)C)N(C)C1=O` [Compound I, [(3R,4R,5S)-4-Hydroxy-3-methyl-5-(methylamino)-1-N-morpholino-hexanoic acid]^1[(S)-thio-isopropyl-Sar]^3 cyclosporin A] were, in that order, 25 to 50 µM (≈ 33.4 to 66.8 µg/mL) and 7.7 nM. As for `CC[C@H]1NC(=O)[C@@H]([C@H](O)[C@H](C)CCN(Cc2ccccn2)Cc2ccccn2)N(C)C(=O)[C@@H](C(C)C)N(C)C(=O)[C@@H](CC(C)C)N(C)C(=O)[C@@H](CC(C)C)N(C)C(=O)[C@H](C)NC(=O)[C@@H](C)NC(=O)[C@@H](CC(C)C)N(C)C(=O)[C@@H](C(C)C)NC(=O)[C@H](CC(C)C)N(C)C(=O)[C@@H](C)N(C)C1=O` [Compound DB, [(3R,4R,5S)-1-(Bis{pyridin-2-ylmethyl}amino)-4-hydroxy-3-methyl-5-(methylamino)-hexanoic acid]^1[(R)-methyl-Sar]^3 cyclosporin A], in series [2] (setting [4]), the solubility at 18 h is 75 to 100 µM (≈ 104 to 139 µg/mL). Also, in series [3], the Ki stood at 7.4 nM. In turn, `CS[C@@H]1C(=O)N(C)[C@@H](CC(C)C)C(=O)N[C@H](C(C)C)C(=O)N(C)[C@H](CC(C)C)C(=O)N[C@H](C)C(=O)N[C@@H](C)C(=O)N(C)[C@H](CC(C)C)C(=O)N(C)[C@H](CC(C)C)C(=O)N(C)[C@H](C(C)C)C(=O)N(C)[C@H]([C@H](O)[C@H](C)CCN2CCOCC2)C(=O)N[C@H](C(C)C)C(=O)N1C` [Compound AM, [(3R,4R,5S)-4-Hydroxy-3-methyl-5-(methylamino)-1-morpholino-hexanoic acid]^1[(S)-thio-methyl-Sar]^3 cyclosporin D] showed a solubility at 18 h in series [2] (setting [5]) of 25 to 50 µM (≈ 33 to 66.1 µg/mL). Moreover, the Ki in series [3] amounted to 1.9 nM.

`CC[C@H]1NC(=O)[C@@H]([C@H](O)[C@H](C)CCN2CC3CCC(C2)O3)N(C)C(=O)[C@@H](C(C)C)N(C)C(=O)[C@@H](CC(C)C)N(C)C(=O)[C@@H](CC(C)C)N(C)C(=O)[C@H](C)NC(=O)[C@@H](C)NC(=O)C(CC(C)C)N(C)C(=O)[C@@H](C(C)C)NC(=O)[C@H](CC(C)C)N(C)C(=O)[C@@H](C)N(C)C1=O` (stereo partly drawn) [Compound DV, [(3R,4R,5S)-4-Hydroxy-3-methyl-5-(methylamino)-1-(8-oxa-3-aza-bicyclo[3.2.1]oct-3-yl)-hexanoic acid]^1[(R)-methyl-Sar]^3 cyclosporin A]: the solubility at 18 h in series [2] (setting [5]) is 50 to 75 µM (≈ 65.1 to 97.6 µg/mL). Besides, the Ki in series [3] turned out to be 4.3 nM.
